Results published in US20130310256A1, “HERBICIDAL COMPOSITIONS COMPRISING 4-AMINO-3-CHLORO-5-FLUORO-6-(4-CHLORO-2-FLUORO-3-METHOXYPHENYL) PYRIDINE-2-CARBOXYLIC ACID OR A DERIVATIVE THEREOF AND VLCFA AND LIPID SYNTHESIS INHIBITING HERBICIDES” (DOW AGROSCIENCES LLC, priority 2008, published 2013).
Several values for one entry are separate records, joined by “and”; a condition that tells them apart may be missing. Equal values may be shown once.

Experiments:
BRAPP = test: Example I: postemergence foliar-applied weed control, direct seeded rice weeds, greenhouse; format: in vivo; conditions: for Visual Weed Control Obs: 20 DAA; for Visual Weed Control (%) - 22 DAA BRAPP Obs: foliar
Method in brief: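 Plants grown in loam/sandy loam–calcareous grit soil (80:20) in greenhouse, 14 hr photoperiod, about 29° C. day/26° C. night, treated postemergence at first to fourth true leaf stage. Foliar spray at 187 L/ha with 1.25% (v/v) crop oil concentrate; Compound A dosed on acid equivalent basis, partners on active ingredient basis.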

IPOHE = test: Example I: postemergence foliar-applied weed control, greenhouse; format: in vivo, Ipomoea hederacea Jacq. (ivyleaf morningglory); conditions: for Visual Weed Control Obs: 20 DAA; for Visual Weed Control (%) - 21 DAA IPOHE Obs: foliar
Source text: Seeds or nutlets of the desired test plant species were planted in a soil matrix prepared by mixing a loam or sandy loam soil (e.g., 28.6 percent silt, 18.8 percent clay, and 52.6 percent sand, with a pH of about 5.8 and an organic matter content of about 1.8 percent) and calcareous grit in an 80 to 20 ratio. The soil matrix was contained in plastic pots with a volume of 1 quart and a surface area of 83.6 square centimeters (cm^2). When required to ensure good germination and healthy plants, a fungicide treatment and/or other chemical or physical treatment was applied. The plants were grown for 8-22 days in a greenhouse with an approximate 14 hr photoperiod which was maintained at about 29° C. during the day and 26° C. during the night. Nutrients (Peters Excel® 15-5-15 5-Ca 2-Mg and iron chelate) were applied in the irrigation solution as needed and water was added on a regular basis. Supplemental lighting was provided with overhead metal halide 1000-Watt lamps as necessary. The plants were employed for testing when they reached the first through fourth true leaf stage.
Treatments consisted of the acid or esters of 4-amino-3-chloro-5-fluoro-6-(4-chloro-2-fluoro-3-methoxy-phenyl)pyridine-2-carboxylic acid (Compound A), each formulated as an SC (suspension concentrate), and various herbicidal components alone and in combination. Forms of compound A were applied on an acid equivalent basis.
Other herbicidal components were applied on an active ingredient basis and included very long chain fatty acid (VLCFA) synthesis-inhibiting and fatty acid/lipid synthesis-inhibiting herbicides acetochlor (technical grade material), acetochlor+dichlormid formulated as Topnotch®, pretilachlor (technical grade material), butachlor formulated as Butachlor EC, fentrazamide formulated as Fentrazamide EC, thiobencarb formulated as Bolero® 8EC, cafenstrole formulated as Himeadow® WP or Lapost® Flowable, benfuresate formulated as Full Shot®, dimethenamid-P formulated as Outlook®, indanofan (technical grade material), flufenacet formulated as Define® DF, mefenacet (technical grade material), S-metolachlor formulated as Dual® II Magnum, pethoxamid formulated as Successor® 600, and pyroxasulfone (technical grade material).
Treatment requirements were calculated based upon the rates being tested, the concentration of active ingredient or acid equivalent in the formulation, and a 12 mL application volume at a rate of 187 L/ha.
For treatments comprised of formulated compounds, measured amounts of compounds were placed individually in 25 mL glass vials and diluted in a volume of 1.25% (v/v) Agri-Dex® crop oil concentrated to obtain 12× stock solutions. […] Application solutions were prepared by adding an appropriate amount of each stock solution (e.g., 1 mL) and diluted to the appropriate final concentrations with the addition of 10 mL of an aqueous mixture of 1.25% (v/v) crop oil concentrate so that the final spray solutions contained 1.25+/−0.05% (v/v) crop oil concentrate.
For treatments comprised of technical compounds, weighed amounts can be placed individually in 25 mL glass vials and dissolved in a volume of 97:3 v/v acetone/DMSO to obtain 12× stock solutions. […] Application solutions can be prepared by adding an appropriate amount of each stock solution (e.g., 1 mL) and diluted to the appropriate final concentrations with the addition of 10 mL of an aqueous mixture of 1.5% (v/v) crop oil concentrate so that the final spray solutions contain 1.25% (v/v) crop oil concentrate. When technical materials are used, the concentrated stock solutions can be added to the spray solutions so that the final acetone and DMSO concentrations of the application solutions are […], respectively. […]

CCN(CC)C(=O)n1cnc(S(=O)(=O)c2c(C)cc(C)cc2C)n1 [Cafenstrole, N,N-diethyl-3-[(2,4,6-trimethylphenyl)sulfonyl]-1H-1,2,4-triazole-1-carboxamide]
Visual Weed Control Obs (BRAPP; 26.25 gai/ha Himeadow WP): 0% | Visual Weed Control Obs (BRAPP; 52.5 gai/ha Himeadow WP): 0% | Visual Weed Control Obs (BRAPP; 105 gai/ha Himeadow WP): 0% | Visual Weed Control Obs (IPOHE; 26.25 gai/ha Himeadow WP): 0% | Visual Weed Control Obs (IPOHE; 105 gai/ha Himeadow WP): 30% | Visual Weed Control (%) - 21 DAA IPOHE Obs (IPOHE; 26.25 gai/ha): 0% | Visual Weed Control (%) - 21 DAA IPOHE Obs (IPOHE; 210 gai/ha, 2nd IPOHE sub-table): 10%

COc1c(Cl)ccc(-c2nc(C(=O)O)c(Cl)c(N)c2F)c1F [Compound A Acid, 4-amino-3-chloro-6-(4-chloro-2-fluoro-3-methoxyphenyl)-5-fluoropyridine-2-carboxylic acid]
Visual Weed Control Obs (BRAPP; 4.38 gae/ha): 50% and 60% and 75% | Visual Weed Control Obs (BRAPP; 8.75 gae/ha): 70% and 80% | Visual Weed Control Obs (IPOHE; 4.38 gae/ha): 0% | Visual Weed Control Obs (IPOHE; 8.75 gae/ha): 20% | Visual Weed Control Obs (IPOHE; 17.5 gae/ha): 40%

COc1c(Cl)ccc(-c2nc(C(=O)OCc3ccccc3)c(Cl)c(N)c2F)c1F [Compound A Benzyl Ester, benzyl ester of 4-amino-3-chloro-5-fluoro-6-(4-chloro-2-fluoro-3-methoxy-phenyl)pyridine-2-carboxylic acid]
Visual Weed Control (%) - 22 DAA BRAPP Obs (BRAPP; 8 gae/ha): 60% and 65% | Visual Weed Control (%) - 22 DAA BRAPP Obs (BRAPP; 16 gae/ha): 60% and 80% | Visual Weed Control Obs (BRAPP; 4.38 gae/ha): 60% | Visual Weed Control Obs (BRAPP; 8.75 gae/ha): 65% | Visual Weed Control (%) - 22 DAA BRAPP Obs (BRAPP; 32 gae/ha): 90% and 85% | Visual Weed Control (%) - 21 DAA IPOHE Obs (IPOHE; 4.38 gae/ha): 0% | Visual Weed Control (%) - 21 DAA IPOHE Obs (IPOHE; 8.75 gae/ha): 10% | Visual Weed Control (%) - 21 DAA IPOHE Obs (IPOHE; 17.5 gae/ha): 30% | Visual Weed Control (%) - 21 DAA IPOHE Obs (IPOHE; 17.5 gae/ha, 2nd IPOHE sub-table): 10% | Visual Weed Control Obs (IPOHE; 4.38 gae/ha): 10% | Visual Weed Control Obs (IPOHE; 8.75 gae/ha): 15% | Visual Weed Control Obs (IPOHE; 17.5 gae/ha): 25%

CCCOCCN(C(=O)CCl)c1c(CC)cccc1CC [Pretilachlor, 2-chloro-N-(2,6-diethylphenyl)-N-(2-propoxyethyl)acetamide]
Visual Weed Control Obs (BRAPP; 37.5 gai/ha): 0% | Visual Weed Control Obs (BRAPP; 75 gai/ha): 0% | Visual Weed Control Obs (BRAPP; 150 gai/ha): 0%
